Test results from patent US20240092835A1, “NOVEL PEPTIDES CAPABLE OF ALTERING NK CELL ACTIVITY” (Massachusetts Institute of Technology, priority 2022, published 2024).
Where no end group is shown, it is not given here.

Tests used:
CD94/NKG2C = CD94/NKG2C (Homo sapiens, UniProt P26717+Q13241); test: Steady-state surface plasmon resonance of peptide-HLA-E complex with CD94/NKG2C; type: binding; settings: for Binding of peptide-HLA-E complexes to CD94/NKG2C normalized to a theoretical Rmax: steady-state SPR
Chain of CD94/NKG2C (P26717 94-231 limits assumed): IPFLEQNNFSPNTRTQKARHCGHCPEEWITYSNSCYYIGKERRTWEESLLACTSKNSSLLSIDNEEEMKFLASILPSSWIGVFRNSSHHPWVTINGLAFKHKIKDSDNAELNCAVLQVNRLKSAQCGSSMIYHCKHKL
Chain of CD94/NKG2C (Q13241 32-179 limits assumed): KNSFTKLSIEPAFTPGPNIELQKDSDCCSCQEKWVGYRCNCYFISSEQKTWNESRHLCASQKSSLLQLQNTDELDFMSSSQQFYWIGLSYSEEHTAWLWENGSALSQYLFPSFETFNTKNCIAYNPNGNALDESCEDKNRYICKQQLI

NKG2A−/NKG2C+ NK cells [1] = test: NKG2A-/NKG2C+ NK cell activation with peptide and RMA-S cells expressing HLA-E; type: cell-based; settings: RMA-S cells expressing HLA-E
How it was run: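 RMA-S cells with low HLA-E expression were loaded with peptides and tested against NKG2A−/NKG2C+ NK cells, with two reference peptide sequences as controls. Activation read as percent cells positive for CD107a, IFNG, TNF and CCL3.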

NKG2A−/NKG2C+ NK cells [2] = test: NK cell activation markers in NKG2A-/NKG2C+ NK cells incubated with peptide and K562 expressing HLA-E (activation); type: cell-based, human; settings: for effect on NKG2A−/NKG2C+ NK cell activation (in words): K562 expressing HLA-E, CD107a, IFNG, TNF, CCL3; for percentage of CCL3+ NK cells / percentage of CD107+ NK cells / percentage of IFNG+ NK cells / percentage of TNF+ NK cells: NKG2A-/NKG2C+ NK cells, K562/HLA-E
How it was run: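 Human myelogenous leukemia K562 cells displaying HLA-E carry the test peptides (human or HCMV origin) and are presented to NK cells; surface activation markers are scored by percent positive cells.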

Question: For VNPGRSLFL [human5, VNPGRSLFL], which “binding of peptide-HLA-E complex to CD94/NKG2C normalized to a fitted Rmax” value (CD94/NKG2C; CD94/NKG2C concentration 0 μM) is on record?
Answer: −0.001

Question: And the “binding of peptide-HLA-E complex to CD94/NKG2C normalized to a fitted Rmax” value (CD94/NKG2C; CD94/NKG2C concentration 0.1 μM)?
Answer: 0.064

Question: What about the “binding of peptide-HLA-E complex to CD94/NKG2C normalized to a fitted Rmax” value (CD94/NKG2C; CD94/NKG2C concentration 0.2 μM) of the same sequence?
Answer: 0.119

Question: What about the “binding of peptide-HLA-E complex to CD94/NKG2C normalized to a fitted Rmax” value (CD94/NKG2C; CD94/NKG2C concentration 0.4 μM) of the same sequence?
Answer: 0.205

Question: And the “binding of peptide-HLA-E complex to CD94/NKG2C normalized to a fitted Rmax” value (CD94/NKG2C; CD94/NKG2C concentration 0.8 μM)?
Answer: 0.333

Question: And the “binding of peptide-HLA-E complex to CD94/NKG2C normalized to a fitted Rmax” value (CD94/NKG2C; CD94/NKG2C concentration 1.6 μM)?
Answer: 0.488

Question: And the “binding of peptide-HLA-E complex to CD94/NKG2C normalized to a fitted Rmax” value (CD94/NKG2C; CD94/NKG2C concentration 3.2 μM)?
Answer: 0.650

Question: And the “binding of peptide-HLA-E complex to CD94/NKG2C normalized to a fitted Rmax” value (CD94/NKG2C; CD94/NKG2C concentration 6.4 μM)?
Answer: 0.795

Question: And the “binding of peptide-HLA-E complex to CD94/NKG2C normalized to a fitted Rmax” value (CD94/NKG2C; CD94/NKG2C concentration 12.8 μM)?
Answer: 0.902

Question: What about the “binding of peptide-HLA-E complex to CD94/NKG2C normalized to a fitted Rmax” value (CD94/NKG2C; CD94/NKG2C concentration 25.6 μM) of the same sequence?
Answer: 0.971

Question: What about the “binding of peptide-HLA-E complex to CD94/NKG2C normalized to a fitted Rmax” value (CD94/NKG2C; CD94/NKG2C concentration 51.2 μM) of the same sequence?
Answer: 0.990

Question: And the “binding of peptide-HLA-E complex to CD94/NKG2C normalized to a fitted Rmax” value (CD94/NKG2C; CD94/NKG2C concentration 102.4 μM)?
Answer: 0.983

Question: And the “Binding of peptide-HLA-E complexes to CD94/NKG2C normalized to a theoretical Rmax” value (CD94/NKG2C; CD94/NKG2C analyte concentration 0 μM)?
Answer: 0.000

Question: What about the “Binding of peptide-HLA-E complexes to CD94/NKG2C normalized to a theoretical Rmax” value (CD94/NKG2C; CD94/NKG2C analyte concentration 0.1 μM) of the same sequence?
Answer: 0.024

Question: And the “Binding of peptide-HLA-E complexes to CD94/NKG2C normalized to a theoretical Rmax” value (CD94/NKG2C; CD94/NKG2C analyte concentration 0.2 μM)?
Answer: 0.044

Question: And the “Binding of peptide-HLA-E complexes to CD94/NKG2C normalized to a theoretical Rmax” value (CD94/NKG2C; CD94/NKG2C analyte concentration 0.4 μM)?
Answer: 0.076

Question: What about the “Binding of peptide-HLA-E complexes to CD94/NKG2C normalized to a theoretical Rmax” value (CD94/NKG2C; CD94/NKG2C analyte concentration 0.8 μM) of the same sequence?
Answer: 0.123

Question: And the “Binding of peptide-HLA-E complexes to CD94/NKG2C normalized to a theoretical Rmax” value (CD94/NKG2C; CD94/NKG2C analyte concentration 1.6 μM)?
Answer: 0.180

Question: What about the “Binding of peptide-HLA-E complexes to CD94/NKG2C normalized to a theoretical Rmax” value (CD94/NKG2C; CD94/NKG2C analyte concentration 3.2 μM) of the same sequence?
Answer: 0.240

Question: What about the “Binding of peptide-HLA-E complexes to CD94/NKG2C normalized to a theoretical Rmax” value (CD94/NKG2C; CD94/NKG2C analyte concentration 6.4 μM) of the same sequence?
Answer: 0.294

Question: And the “Binding of peptide-HLA-E complexes to CD94/NKG2C normalized to a theoretical Rmax” value (CD94/NKG2C; CD94/NKG2C analyte concentration 12.8 μM)?
Answer: 0.333

Question: What about the “Binding of peptide-HLA-E complexes to CD94/NKG2C normalized to a theoretical Rmax” value (CD94/NKG2C; CD94/NKG2C analyte concentration 25.6 μM) of the same sequence?
Answer: 0.359

Question: And the “Binding of peptide-HLA-E complexes to CD94/NKG2C normalized to a theoretical Rmax” value (CD94/NKG2C; CD94/NKG2C analyte concentration 51.2 μM)?
Answer: 0.366

Question: What about the “Binding of peptide-HLA-E complexes to CD94/NKG2C normalized to a theoretical Rmax” value (CD94/NKG2C; CD94/NKG2C analyte concentration 102.4 μM) of the same sequence?
Answer: 0.363

Question: And the “NKG2A−/NKG2C+ NK cell activation relative to positive control peptides (in words)” value (NKG2A−/NKG2C+ NK cells [1]; listed as SEQ ID NO. 3)?
Answer: strongest activation of NK cells, comparable with the positive control peptides for several markers assessed

Question: And the “NKG2A−/NKG2C+ NK cell activation relative to positive control peptides (in words)” value (NKG2A−/NKG2C+ NK cells [1]; listed as h5)?
Answer: strongest NK cell activation, comparable with the positive control peptides for several markers assessed

Question: And the “effect on NKG2A−/NKG2C+ NK cell activation (in words)” value (NKG2A−/NKG2C+ NK cells [2]; listed as SEQ ID NO. 3)?
Answer: activate

Question: And the “effect on NKG2A−/NKG2C+ NK cell activation (in words)” value (NKG2A−/NKG2C+ NK cells [2]; listed as h5)?
Answer: activated

Question: What about the “percentage of CCL3+ NK cells” value (NKG2A−/NKG2C+ NK cells [2]; Trial 1) of the same sequence?
Answer: 60.9%

Question: And the “percentage of CD107+ NK cells” value (NKG2A−/NKG2C+ NK cells [2]; Trial 1)?
Answer: 59.7%

Question: And the “percentage of IFNG+ NK cells” value (NKG2A−/NKG2C+ NK cells [2]; Trial 1)?
Answer: 35.3%

Question: What about the “percentage of TNF+ NK cells” value (NKG2A−/NKG2C+ NK cells [2]; Trial 1) of the same sequence?
Answer: 17.4%

Question: And the “percentage of CCL3+ NK cells” value (NKG2A−/NKG2C+ NK cells [2]; Trial 2)?
Answer: 74.5%

Question: What about the “percentage of CD107+ NK cells” value (NKG2A−/NKG2C+ NK cells [2]; Trial 2) of the same sequence?
Answer: 61.8%

Question: What about the “percentage of IFNG+ NK cells” value (NKG2A−/NKG2C+ NK cells [2]; Trial 2) of the same sequence?
Answer: 43.2%

Question: And the “percentage of TNF+ NK cells” value (NKG2A−/NKG2C+ NK cells [2]; Trial 2)?
Answer: 23.9%

Question: What about the “percentage of CCL3+ NK cells” value (NKG2A−/NKG2C+ NK cells [2]; Trial 3) of the same sequence?
Answer: 72.5%

Question: And the “percentage of CD107+ NK cells” value (NKG2A−/NKG2C+ NK cells [2]; Trial 3)?
Answer: 72.6%

Question: What about the “percentage of IFNG+ NK cells” value (NKG2A−/NKG2C+ NK cells [2]; Trial 3) of the same sequence?
Answer: 57.2%

Question: What about the “percentage of TNF+ NK cells” value (NKG2A−/NKG2C+ NK cells [2]; Trial 3) of the same sequence?
Answer: 42.2%

Question: And the “percentage of CCL3+ NK cells” value (NKG2A−/NKG2C+ NK cells [2]; Trial 4)?
Answer: 63.8%

Question: And the “percentage of CD107+ NK cells” value (NKG2A−/NKG2C+ NK cells [2]; Trial 4)?
Answer: 64.3%

Question: And the “percentage of IFNG+ NK cells” value (NKG2A−/NKG2C+ NK cells [2]; Trial 4)?
Answer: 51.1%

Question: And the “percentage of TNF+ NK cells” value (NKG2A−/NKG2C+ NK cells [2]; Trial 4)?
Answer: 36%

Question: What about the “percentage of CCL3+ NK cells” value (NKG2A−/NKG2C+ NK cells [2]; Trial 5) of the same sequence?
Answer: 69.7%

Question: What about the “percentage of CD107+ NK cells” value (NKG2A−/NKG2C+ NK cells [2]; Trial 5) of the same sequence?
Answer: 67.6%

Question: What about the “percentage of IFNG+ NK cells” value (NKG2A−/NKG2C+ NK cells [2]; Trial 5) of the same sequence?
Answer: 53.4%

Question: What about the “percentage of TNF+ NK cells” value (NKG2A−/NKG2C+ NK cells [2]; Trial 5) of the same sequence?
Answer: 40.4%

Question: And the “percentage of CCL3+ NK cells” value (NKG2A−/NKG2C+ NK cells [2]; Trial 6)?
Answer: 47.2%

Question: And the “percentage of CD107+ NK cells” value (NKG2A−/NKG2C+ NK cells [2]; Trial 6)?
Answer: 46.8%
